Among the test systems are 786-0 renal; COLO 205 colon; DU-145 prostate; HCT-116 colon; HOP-62 NSCLC; LOX IMVI melanoma; MDA-MB-231 breast; NCI-H23 lung; NCI-H522 lung; OVCAR-4 ovarian.
Holding throughout (test): growth of human tumour cells (NCI), 48 h

Each structure is given as a SMILES string.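 Method: 48-hour compound exposure of cells in 96-well plates, five concentrations, linear interpolation of endpoints. GI50 = concentration required for 50% inhibition of growth. TGI denotes the concentration required for complete inhibition of growth.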

For `CN(CC(=O)Nc1nc2ccccc2[nH]1)S(=O)(=O)c1ccc(Cl)cc1`, the GI50 in the experiment on 786-0 renal, in the experiment with COLO 205 colon, with DU-145 prostate, with HCT-116 colon, with HOP-62 NSCLC and in the experiment with LOX IMVI melanoma was above 100 µM each time. For the same compound, the GI50 in the experiment on MDA-MB-231 breast, with NCI-H23 lung, with NCI-H522 lung and in the experiment with OVCAR-4 ovarian was above 100 µM each time. Further, the TGI in the experiment with 786-0 renal, with COLO 205 colon, in the experiment on DU-145 prostate, with HCT-116 colon, with HOP-62 NSCLC and with LOX IMVI melanoma was above 100 µM each time. In addition, the TGI in the experiment with MDA-MB-231 breast, in the experiment on NCI-H23 lung, in the experiment on NCI-H522 lung and in the experiment on OVCAR-4 ovarian was above 100 µM in each case.
Turning to `Cc1ccc(C(=O)/C(=C\c2ccc([N+](=O)[O-])cc2)S(=O)Cc2ccc(Cl)cc2)cc1` (stereo not given), the GI50 with 786-0 renal is 1.57 µM; in the experiment on COLO 205 colon, 1.88 µM; in the experiment with DU-145 prostate, 1.75 µM; in the experiment on HCT-116 colon it was 1.43 µM; in the experiment on HOP-62 NSCLC, 2.39 µM; in the experiment with LOX IMVI melanoma, 1.55 µM. Also, the GI50 in the experiment with MDA-MB-231 breast is 1.86 µM; in the experiment on NCI-H23 lung it was 1.83 µM; with NCI-H522 lung, 1.72 µM; in the experiment with OVCAR-4 ovarian, 1.85 µM. Also, the TGI worked out at 2.97 µM in the experiment on 786-0 renal; 3.81 µM in the experiment on COLO 205 colon; 3.21 µM in the experiment on DU-145 prostate; 2.92 µM in the experiment with HCT-116 colon; 6.21 µM with HOP-62 NSCLC; 3.04 µM in the experiment on LOX IMVI melanoma. Moreover, the TGI in the experiment with MDA-MB-231 breast turned out to be 3.88 µM; with NCI-H23 lung, 3.89 µM; with NCI-H522 lung it was 3.18 µM; in the experiment with OVCAR-4 ovarian, 3.85 µM.
With `Cc1cn2c(/C=N/N=C(N)N)c(-c3ccccn3)nc2s1`, the GI50 in the experiment on 786-0 renal is 6.56 µM; in the experiment with COLO 205 colon it was 11.3 µM; in the experiment with DU-145 prostate, 10.5 µM; with HCT-116 colon, 6.29 µM; with HOP-62 NSCLC it was 10.5 µM; in the experiment on LOX IMVI melanoma it was 20.1 µM. In addition, the GI50 with MDA-MB-231 breast is 17.2 µM; with NCI-H23 lung it was 6.65 µM; with NCI-H522 lung, 14.2 µM; with OVCAR-4 ovarian it was 15.2 µM. For the same compound, the TGI in the experiment on 786-0 renal turned out to be 17.9 µM; with COLO 205 colon, 42 µM; with DU-145 prostate it was 37.7 µM; in the experiment with HCT-116 colon, 25.8 µM; in the experiment on HOP-62 NSCLC, 26.9 µM; in the experiment with LOX IMVI melanoma it was 46.1 µM. The TGI was determined as 39.6 µM in the experiment with MDA-MB-231 breast, 16.7 µM with NCI-H23 lung, 53.3 µM with NCI-H522 lung and 40.1 µM in the experiment on OVCAR-4 ovarian.
Regarding `CCOC(=O)C#Cc1c(C(=O)OCC)nnn1Cc1ccc([N+](=O)[O-])cc1`, the GI50 is 3.29 µM with 786-0 renal; 1.97 µM in the experiment on COLO 205 colon; 3.88 µM with DU-145 prostate; 2.02 µM with HCT-116 colon; 17.3 µM with HOP-62 NSCLC; 0.949 µM in the experiment on LOX IMVI melanoma. Besides, the GI50 with MDA-MB-231 breast was 3.25 µM; in the experiment with NCI-H23 lung, 8.2 µM; in the experiment with NCI-H522 lung, 1.92 µM; in the experiment on OVCAR-4 ovarian it was 2.54 µM. The TGI with 786-0 renal was 10.8 µM; in the experiment with COLO 205 colon, 3.79 µM; in the experiment with DU-145 prostate, 14.2 µM; in the experiment with HCT-116 colon, 4.3 µM; in the experiment on HOP-62 NSCLC, 31.6 µM; with LOX IMVI melanoma, 2.29 µM. Further, the TGI in the experiment on MDA-MB-231 breast amounted to 9.14 µM; in the experiment with NCI-H23 lung, 26.9 µM; in the experiment on NCI-H522 lung, 3.8 µM; in the experiment with OVCAR-4 ovarian, 7.14 µM.
As for `O=C1c2ccccc2-c2c1c1c(O)cccc1n2Cc1ccccn1`, the GI50 with 786-0 renal was above 100 µM; with COLO 205 colon, 61 µM; in the experiment on DU-145 prostate, 36.5 µM; with HCT-116 colon, 63.5 µM; in the experiment on HOP-62 NSCLC it was 84.9 µM; with LOX IMVI melanoma, 35.5 µM. For the same compound, the GI50 was 28.5 µM in the experiment with MDA-MB-231 breast, 44.1 µM in the experiment with NCI-H23 lung, above 100 µM in the experiment with NCI-H522 lung and above 100 µM in the experiment on OVCAR-4 ovarian. For the same compound, the TGI in the experiment on 786-0 renal, in the experiment on COLO 205 colon, in the experiment on DU-145 prostate, in the experiment on HCT-116 colon, in the experiment on HOP-62 NSCLC and with LOX IMVI melanoma was above 100 µM in each case. The TGI in the experiment on MDA-MB-231 breast, in the experiment on NCI-H23 lung, in the experiment on NCI-H522 lung and in the experiment with OVCAR-4 ovarian was above 100 µM each time.
On to `O=C(O)c1c(=O)cccc2ssc12`, for which the GI50 is 1.88 µM with 786-0 renal; 2 µM in the experiment with COLO 205 colon; 1.92 µM with DU-145 prostate; 1.62 µM in the experiment on HCT-116 colon; 1.81 µM in the experiment with HOP-62 NSCLC; 1.78 µM in the experiment with LOX IMVI melanoma. The GI50 is 2.29 µM in the experiment with MDA-MB-231 breast, 1.75 µM in the experiment on NCI-H23 lung, 1.61 µM in the experiment with NCI-H522 lung and 2.21 µM in the experiment on OVCAR-4 ovarian. Also, the TGI is 3.44 µM in the experiment on 786-0 renal; 3.91 µM in the experiment on COLO 205 colon; 3.73 µM in the experiment on DU-145 prostate; 3.32 µM in the experiment with HCT-116 colon; 3.44 µM in the experiment with HOP-62 NSCLC; 3.42 µM in the experiment on LOX IMVI melanoma. Further, the TGI in the experiment with MDA-MB-231 breast turned out to be 4.67 µM; in the experiment with NCI-H23 lung, 3.45 µM; in the experiment with NCI-H522 lung, 3.24 µM; in the experiment on OVCAR-4 ovarian, 4.87 µM.
For `C=C1C(=O)O[C@H]2[C@H]1CC/C(COC(=O)C(C)c1ccc(CC(C)C)cc1)=C\CC[C@@]1(C)O[C@@H]21` (stereo not given in full), the GI50 with 786-0 renal was 0.395 µM; in the experiment with COLO 205 colon, 1.91 µM; in the experiment on DU-145 prostate, 1.59 µM; with HCT-116 colon, 0.187 µM; in the experiment on HOP-62 NSCLC it was 1.88 µM; with LOX IMVI melanoma it was 1.54 µM. The GI50 in the experiment on MDA-MB-231 breast is 1.38 µM; in the experiment on NCI-H23 lung, 1.77 µM; with NCI-H522 lung, 1.71 µM; in the experiment with OVCAR-4 ovarian, 1.71 µM. Besides, the TGI came out at 1.65 µM in the experiment on 786-0 renal; 4.1 µM with COLO 205 colon; 2.95 µM with DU-145 prostate; 0.376 µM with HCT-116 colon; 4.26 µM in the experiment on HOP-62 NSCLC; 3.01 µM in the experiment with LOX IMVI melanoma. Also, the TGI in the experiment with MDA-MB-231 breast amounted to 2.73 µM; in the experiment on NCI-H23 lung, 3.92 µM; in the experiment on NCI-H522 lung, 3.4 µM; in the experiment on OVCAR-4 ovarian it was 3.35 µM.
`O=C1OC(=O)C2CCCC3CCCC1C32` (stereo not given): the TGI with 786-0 renal, in the experiment with COLO 205 colon, in the experiment with DU-145 prostate, in the experiment with HCT-116 colon, in the experiment with HOP-62 NSCLC and in the experiment with LOX IMVI melanoma was above 100 µM throughout. Besides, the TGI in the experiment with MDA-MB-231 breast, with NCI-H23 lung, in the experiment with NCI-H522 lung and in the experiment with OVCAR-4 ovarian was above 100 µM throughout.

Values taken from PubChem BioAssay (NCI).
